# Experimental data taken from patent publication US12384788B2, “1,4-dihydrobenzo[d]pyrazolo[3,4-f][1,3]diazepine derivatives and related compounds as LRRK2, NUAK1 and/or TYK2 kinase modulators for the treatment of e.g. autoimmune disease” (Origenis GMBH, priority 2019, dated 2025).
# pIC50: −log10 of the molar value.
# Target: T1, wt human TYK2, catalytic site (Homo sapiens, UniProt P29597)
# T1 construct: wt human TYK2, catalytic site; purchased SignalChem
# T1 sequence (P29597 897-1176 limits assumed): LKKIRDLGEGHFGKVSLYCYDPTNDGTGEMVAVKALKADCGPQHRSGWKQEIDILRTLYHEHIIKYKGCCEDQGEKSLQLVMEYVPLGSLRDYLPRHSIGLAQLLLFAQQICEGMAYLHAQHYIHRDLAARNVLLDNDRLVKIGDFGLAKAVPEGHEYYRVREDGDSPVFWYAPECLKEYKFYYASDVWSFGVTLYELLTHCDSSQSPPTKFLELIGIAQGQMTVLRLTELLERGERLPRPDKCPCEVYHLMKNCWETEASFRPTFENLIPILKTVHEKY
# Test: HTRF KinEASE assay, TYK2
# Format: biochemical
# Conditions: 1 μM ATP; read-out: IC50, inhibitory activity toward TYK2
# Protocol: Basic protocol for HTRF KinEASE assay (Cisbio/FRA) inhibitor studies involved two steps:
# Enzymatic step: Addition of 4 μl of test compound in corresponding DMSO dilutions, 4 μl of kinase/substrate mixture, 2 μl of ATP into 384 well small volume plates. Incubation for at least 30 minutes at room temperature.
# Detection step: Addition of 5 μl antibody and 5 μl streptavidin-XL665, read plate after 60 minutes. Data analysis of emission ratios according to KinEASE assay protocol.
# Kinase and assay components were adjusted to final concentrations according to the kit protocol. For TYK2: 2 nM wt human TYK2, catalytic site (SignalChem/CAN), 1 μM HTRF KinEASE-TK Substrate-biotin, 1 μM ATP in 1× Kinase Buffer
compound,measurement,value
"Fc1cccc(Cl)c1C1=Nc2cn[nH]c2-c2[nH]ncc2N1 [Compound 89, 5-(2-chloro-6-fluorophenyl)-4,9-dihydro-1H-dipyrazolo[4,3-d:3′,4′-f][1,3]diazepine]",pIC50,7.00 to 8.00
